# Test results reported in PMC9551036, “A selective and orally bioavailable VHL-recruiting PROTAC achieves SMARCA2 degradation in vivo” (Nature Communications, 2022).
# Several values for one entry are separate records, joined by “and”; a condition that tells them apart may be missing. Equal values may be shown once. Read-outs that look alike come from different tables or passages of the source.
# How the values were obtained:
# SMARCA2 = SMARCA2 (Homo sapiens, UniProt P51531); test: Ex vivo human whole blood assay, SMARCA2; type: cell-based; set-up: endogenous in cells; settings: for HillSlope (best-fit value) / DC50: four-parameter fit; for Bottom (best-fit value) / Span (best-fit value) / Top (best-fit value): four-parameter fit of % protein remaining; for DC50: read-out: EC50 (best-fit value); for LogEC50 (best-fit value): log10 of concentration (mol/l)
# SMARCA2, sequence (P51531 whole entry): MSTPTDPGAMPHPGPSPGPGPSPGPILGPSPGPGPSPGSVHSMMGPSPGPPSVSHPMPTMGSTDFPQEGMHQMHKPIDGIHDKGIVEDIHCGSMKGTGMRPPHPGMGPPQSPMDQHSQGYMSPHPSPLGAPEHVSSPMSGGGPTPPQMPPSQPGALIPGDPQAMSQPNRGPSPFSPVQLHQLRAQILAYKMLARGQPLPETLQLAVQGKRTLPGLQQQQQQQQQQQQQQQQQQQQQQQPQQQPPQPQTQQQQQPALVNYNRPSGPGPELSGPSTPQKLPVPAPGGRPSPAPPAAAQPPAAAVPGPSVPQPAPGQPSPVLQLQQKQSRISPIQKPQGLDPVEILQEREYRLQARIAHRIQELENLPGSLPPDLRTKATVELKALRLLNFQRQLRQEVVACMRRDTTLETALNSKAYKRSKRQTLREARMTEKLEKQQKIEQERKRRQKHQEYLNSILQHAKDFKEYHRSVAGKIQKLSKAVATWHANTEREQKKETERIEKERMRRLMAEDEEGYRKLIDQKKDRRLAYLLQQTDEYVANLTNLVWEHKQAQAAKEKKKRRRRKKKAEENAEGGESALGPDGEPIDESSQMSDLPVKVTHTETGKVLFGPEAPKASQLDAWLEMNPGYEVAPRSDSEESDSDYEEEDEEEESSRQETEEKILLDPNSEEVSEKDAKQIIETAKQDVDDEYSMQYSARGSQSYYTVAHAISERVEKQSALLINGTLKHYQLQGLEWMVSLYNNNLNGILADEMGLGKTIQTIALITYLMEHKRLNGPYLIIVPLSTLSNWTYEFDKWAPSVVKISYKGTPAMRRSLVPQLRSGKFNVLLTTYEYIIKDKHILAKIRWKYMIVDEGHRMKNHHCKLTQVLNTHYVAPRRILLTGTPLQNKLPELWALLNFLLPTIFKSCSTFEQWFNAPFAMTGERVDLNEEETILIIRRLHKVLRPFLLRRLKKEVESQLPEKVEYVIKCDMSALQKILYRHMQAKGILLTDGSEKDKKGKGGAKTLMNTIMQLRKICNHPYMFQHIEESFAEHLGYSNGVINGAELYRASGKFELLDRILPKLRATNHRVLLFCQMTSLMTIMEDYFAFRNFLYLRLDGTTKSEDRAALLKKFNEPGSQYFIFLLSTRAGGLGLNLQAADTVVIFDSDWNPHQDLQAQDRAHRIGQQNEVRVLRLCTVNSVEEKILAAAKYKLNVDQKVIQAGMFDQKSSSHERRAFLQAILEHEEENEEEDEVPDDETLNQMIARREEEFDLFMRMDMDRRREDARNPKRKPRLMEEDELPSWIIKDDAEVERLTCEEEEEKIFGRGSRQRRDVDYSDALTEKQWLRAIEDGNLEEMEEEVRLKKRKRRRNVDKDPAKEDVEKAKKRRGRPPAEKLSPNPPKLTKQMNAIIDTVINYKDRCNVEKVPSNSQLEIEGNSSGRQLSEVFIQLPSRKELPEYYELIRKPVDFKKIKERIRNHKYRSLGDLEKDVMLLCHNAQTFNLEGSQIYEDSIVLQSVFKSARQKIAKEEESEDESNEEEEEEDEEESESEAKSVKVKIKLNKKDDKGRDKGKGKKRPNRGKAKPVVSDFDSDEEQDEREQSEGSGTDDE
# Procedure: The assay was performed on human whole blood from three healthy donors, purchased from the Austrian Red Cross who always obtain samples under informed consent. […] Samples were pivoted at room temperature for 18 h in the dark. Subsequently, peripheral blood mononucleated cells (PBMCs) were isolated from individual aliquots using SepMate Tubes (StemCell) and Lymphoprep (StemCell) medium according to the manufacturer’s instructions and protein lysates were prepared using MSD Lysis buffer (Mesocale Discovery) supplemented with 1:100 Halt Phosphatase-Protease Inhibitor Cocktail (Thermo Fisher), 0.5 µl/ml benzonase (Novagen) and 10 mM DTT. SMARCA2 and SMARCA4 protein levels were determined using capillary electrophoresis (Bio-Techne) according to manufacturer’s instructions. Incubation with primary antibodies for SMARCA2 (Cell Signalling #11966 clone D9E8B RRID:AB_2797783 1:25), SMARCA4 (Abcam #ab110641 clone EPNCIR111A RRID:AB_10861578 1:25) and GAPDH (Abcam, #ab9485 RRID:AB_307275 1:1000) were performed for 30 min.
# SMARCA4 = SMARCA4 (Homo sapiens, UniProt P51532); test: SMARCA4 capillary electrophoresis protein assay in other cell lines (HCT116, LU99, HCC-364, HCT-15, HCC4006, SK-N-AS); type: cell-based; set-up: endogenous in cells; host or cells: RKO, HCT116, LU99, HCC-364, HCT-15, HCC4006, SK-N-AS; settings: HCC4006_SM4
# SMARCA4, sequence (P51532 whole entry): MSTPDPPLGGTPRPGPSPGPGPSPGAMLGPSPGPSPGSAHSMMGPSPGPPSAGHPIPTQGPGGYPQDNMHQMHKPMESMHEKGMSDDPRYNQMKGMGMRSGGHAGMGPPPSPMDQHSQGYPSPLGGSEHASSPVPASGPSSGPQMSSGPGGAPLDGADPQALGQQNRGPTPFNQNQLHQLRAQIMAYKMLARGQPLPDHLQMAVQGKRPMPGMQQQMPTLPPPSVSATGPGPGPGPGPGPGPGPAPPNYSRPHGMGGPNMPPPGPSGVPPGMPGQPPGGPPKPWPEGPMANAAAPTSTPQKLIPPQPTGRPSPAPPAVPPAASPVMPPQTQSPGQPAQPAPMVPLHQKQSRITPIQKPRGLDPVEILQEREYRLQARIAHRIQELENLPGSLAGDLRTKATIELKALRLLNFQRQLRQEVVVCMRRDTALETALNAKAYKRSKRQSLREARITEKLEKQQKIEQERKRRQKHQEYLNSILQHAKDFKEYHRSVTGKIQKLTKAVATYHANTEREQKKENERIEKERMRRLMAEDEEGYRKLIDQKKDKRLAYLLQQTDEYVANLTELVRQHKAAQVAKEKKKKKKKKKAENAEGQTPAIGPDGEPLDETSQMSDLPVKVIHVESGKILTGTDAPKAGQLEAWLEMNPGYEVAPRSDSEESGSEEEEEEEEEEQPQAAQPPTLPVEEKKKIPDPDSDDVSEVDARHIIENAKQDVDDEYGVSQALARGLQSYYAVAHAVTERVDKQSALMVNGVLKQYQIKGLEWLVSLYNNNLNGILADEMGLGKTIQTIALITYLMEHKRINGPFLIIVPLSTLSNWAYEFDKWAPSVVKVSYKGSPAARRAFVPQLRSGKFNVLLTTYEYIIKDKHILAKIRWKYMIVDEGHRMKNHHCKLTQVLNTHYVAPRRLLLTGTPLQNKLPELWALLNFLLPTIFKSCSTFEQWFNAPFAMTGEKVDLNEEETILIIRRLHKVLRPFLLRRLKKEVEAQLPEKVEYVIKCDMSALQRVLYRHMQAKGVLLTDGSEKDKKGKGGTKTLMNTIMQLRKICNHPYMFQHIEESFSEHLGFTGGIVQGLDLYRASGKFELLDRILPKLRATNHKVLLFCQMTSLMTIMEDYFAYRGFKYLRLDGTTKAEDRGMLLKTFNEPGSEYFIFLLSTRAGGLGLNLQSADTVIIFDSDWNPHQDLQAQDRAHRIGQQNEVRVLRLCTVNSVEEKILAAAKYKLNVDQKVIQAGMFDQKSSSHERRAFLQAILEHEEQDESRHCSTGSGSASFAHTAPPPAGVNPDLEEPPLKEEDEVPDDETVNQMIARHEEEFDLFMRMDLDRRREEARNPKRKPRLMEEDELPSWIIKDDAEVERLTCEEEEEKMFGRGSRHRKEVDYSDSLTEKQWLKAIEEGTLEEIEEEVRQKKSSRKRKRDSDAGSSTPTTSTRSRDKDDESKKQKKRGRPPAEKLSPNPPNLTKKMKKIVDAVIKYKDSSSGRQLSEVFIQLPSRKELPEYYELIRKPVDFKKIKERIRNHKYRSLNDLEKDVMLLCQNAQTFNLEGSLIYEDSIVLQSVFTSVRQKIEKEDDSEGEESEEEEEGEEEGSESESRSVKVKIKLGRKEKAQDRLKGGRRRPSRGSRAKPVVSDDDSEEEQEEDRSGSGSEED
# Procedure: 130,000–200,000 cells were seeded in 24-well plates and incubated until settled down or overnight. Compounds were dissolved in DMSO and added to cells in indicated concentrations using a digital dispenser following an optional media change. […] For SMARCA2/4 half-life determination, 150,000 or 200,000 cells were seeded in 24-well plates. […] For SMARCA2/4 re-synthesis measurements, 200,000 cells were seeded in 24-well plates. […] Medium was removed, cells were washed with PBS and lysed with 80 µl Lysis Buffer (MSD Tris Lysis Buffer (#R60TX-2) + Halt Inhibitor Cocktail (100x) + Benzonase 0.5 µL/ml). Samples were frozen at −80 °C and thawed at room temperature before use. Samples were transferred to a V-bottom plate and insoluble debris was pelleted by centrifugation for 5 min at maximum speed. The supernatant was transferred to a fresh plate. Master Mix and Ladder were prepared according to manufacturer’s instructions for 12–230 kDa Wes Separation Module, 8 × 25 capillary cartridges, Protein Simple #SM-W004 with Anti-Rabbit Detection Module for Wes, Peggy Sue or Sally Sue, Protein Simple #DM-001. 4.8 µl lysate were mixed with 1.2 µl Master Mix to achieve a protein concentration of ~0.5 µg/µl. […] Wes plates were prepared and run according to manufacturer’s instructions. Proteins were quantified with accompanying Compass Software. SMARCA2/4 protein levels were normalised to GAPDH. […] Where applicable, curves were fitted using a 4-parametric logistic model.
compound,measurement,setting,value
Cc1ncsc1-c1ccc(C(CCC(C)CCN2CCC(c3ccc4c(c3)n(C3CCCC3)c3nc(=O)c5c(Br)cccc5n43)CC2)NC(=O)C2CC(O)CN2C(=O)C(NC(=O)C2(F)CC2)C(C)(C)C)cc1 (centres unmarked) [ACBI2],"% protein remaining, SMARCA2","SMARCA2; Donor 1, log10[concentration (mol/l)] -6",7.774% and 7.336% and 6.483%
same,"% protein remaining, SMARCA2","SMARCA2; Donor 1, log10[concentration (mol/l)] -6.47712",27.8553% and 21.8081% and 18.9544%
same,"% protein remaining, SMARCA2","SMARCA2; Donor 1, log10[concentration (mol/l)] -6.95424",43.7755% and 37.877% and 37.8583%
same,"% protein remaining, SMARCA2","SMARCA2; Donor 1, log10[concentration (mol/l)] -7.43136",67.8936% and 57.3294% and 53.6432%
same,"% protein remaining, SMARCA2","SMARCA2; Donor 1, log10[concentration (mol/l)] -7.90848",91.2009% and 93.1862% and 66.2599%
same,"% protein remaining, SMARCA2","SMARCA2; Donor 1, log10[concentration (mol/l)] -8.38561",88.6362% and 87.296% and 66.0015%
same,"% protein remaining, SMARCA2","SMARCA2; Donor 1, log10[concentration (mol/l)] -8.86273",73.7554% and 107.064% and 91.2397%
same,HillSlope (best-fit value),SMARCA2; Donor 1 SMARCA2,-0.8748
same,Bottom (best-fit value),SMARCA2; Donor 1 SMARCA2,-2.012%
same,Span (best-fit value),SMARCA2; Donor 1 SMARCA2,93.51%
same,Top (best-fit value),SMARCA2; Donor 1 SMARCA2,91.5%
same,DC50,SMARCA2; Donor 1 SMARCA2,91.1 nM
same,LogEC50 (best-fit value),SMARCA2; Donor 1 SMARCA2,-7.04
same,"% protein remaining, SMARCA2","SMARCA2; Donor 2, log10[concentration (mol/l)] -6",7.351% and 9.811% and 14.3342%
same,"% protein remaining, SMARCA2","SMARCA2; Donor 2, log10[concentration (mol/l)] -6.47712",29.8249% and 32.3978% and 22.5296%
same,"% protein remaining, SMARCA2","SMARCA2; Donor 2, log10[concentration (mol/l)] -6.95424",46.7755% and 52.5543% and 72.1634%
same,"% protein remaining, SMARCA2","SMARCA2; Donor 2, log10[concentration (mol/l)] -7.43136",100.769% and 75.1426% and 71.9733%
same,"% protein remaining, SMARCA2","SMARCA2; Donor 2, log10[concentration (mol/l)] -7.90848",102.968% and 75.392% and 80.5753%
same,"% protein remaining, SMARCA2","SMARCA2; Donor 2, log10[concentration (mol/l)] -8.38561",67.4421% and 97.2734% and 86.3024%
same,"% protein remaining, SMARCA2","SMARCA2; Donor 2, log10[concentration (mol/l)] -8.86273",85.0643% and 65.7852% and 85.6876%
same,HillSlope (best-fit value),SMARCA2; Donor 2 SMARCA2,-1.742
same,Bottom (best-fit value),SMARCA2; Donor 2 SMARCA2,8.097%
same,Span (best-fit value),SMARCA2; Donor 2 SMARCA2,75.81%
same,Top (best-fit value),SMARCA2; Donor 2 SMARCA2,83.91%
same,DC50,SMARCA2; Donor 2 SMARCA2,172 nM
same,LogEC50 (best-fit value),SMARCA2; Donor 2 SMARCA2,-6.765
same,"% protein remaining, SMARCA2","SMARCA2; Donor 3, log10[concentration (mol/l)] -6",11.0787% and 14.9408% and 20.3816%
same,"% protein remaining, SMARCA2","SMARCA2; Donor 3, log10[concentration (mol/l)] -6.47712",32.5224% and 22.883% and 24.5065%
same,"% protein remaining, SMARCA2","SMARCA2; Donor 3, log10[concentration (mol/l)] -6.95424",43.403% and 45.8346% and 34.6157%
same,"% protein remaining, SMARCA2","SMARCA2; Donor 3, log10[concentration (mol/l)] -7.43136",68.0983% and 70.9906% and 84.1093%
same,"% protein remaining, SMARCA2","SMARCA2; Donor 3, log10[concentration (mol/l)] -7.90848",97.8509% and 97.5546% and 65.5857%
same,"% protein remaining, SMARCA2","SMARCA2; Donor 3, log10[concentration (mol/l)] -8.38561",73.4464% and 119.725% and 73.7076%
same,"% protein remaining, SMARCA2","SMARCA2; Donor 3, log10[concentration (mol/l)] -8.86273",88.433% and 116.976% and 110.86%
same,HillSlope (best-fit value),SMARCA2; Donor 3 SMARCA2,-0.9991
same,Bottom (best-fit value),SMARCA2; Donor 3 SMARCA2,9.358%
same,Span (best-fit value),SMARCA2; Donor 3 SMARCA2,92.07%
same,Top (best-fit value),SMARCA2; Donor 3 SMARCA2,101.4%
same,DC50,SMARCA2; Donor 3 SMARCA2,70.3 nM
same,LogEC50 (best-fit value),SMARCA2; Donor 3 SMARCA2,-7.153
same,SMARCA2 degradation in human whole blood,"SMARCA2; three healthy donors, 18 h",significant degradation of SMARCA2
same,"Bottom (best-fit value, % protein remaining)",SMARCA4; four-parameter fit,9.858%
same,% protein remaining,SMARCA4; log10[concentration (mol/l)] -6,8.466% and 14.8549% and 6.254%
same,% protein remaining,SMARCA4; log10[concentration (mol/l)] -8,107.17% and 168.214% and 84.8869%
same,% protein remaining,SMARCA4; log10[concentration (mol/l)] -10,87.4945% and 108.459% and 92.3747%
